1 molecule from US8778882B2, “Agent for strengthening calcium containing tissue and use thereof” (Hayashibara Co., Ltd., priority 2002, dated 2014) can be followed below.

Assay [1] has as its system mouse pre-osteoblastic cell MC3T3-E1. The experiment in a line: Calcium deposition amount by Calcium C Test Wako. The assay is classed as cell-based. From the text:
Other flavonoid compounds than kaempferol or hesperetin were investigated where they have the same effect or not. Flavone (commercialized by Kanto Kagaku, Tokyo, Japan), apigenin (commercialized by Funakoshi, Co., Ltd., Tokyo, Japan), flavonol (commercialized by Tokyo Kasei Kogyo, Co., Ltd., Tokyo, Japan), quercetin (commercialized by Kanto Kagaku, Tokyo, Japan), kaempferol (commercialized by Funakoshi, Co., Ltd., Tokyo, Japan), rutin (commercialized by Kanto Kagaku, Tokyo, Japan), flavanone (commercialized by Kanto Kagaku, Tokyo, Japan), naringenin (commercialized by Ardrich Corporation), hesperetin (commercialized by Funakoshi, Co., Ltd., Tokyo, Japan), hesperidin (commercialized by Kanto Kagaku, Tokyo, Japan), chalcone (commercialized by Merk Corporation), fuloretin (commercialized by Sigma Corporation), catechin (commercialized by Sigma Corporation), ipriflavone (commercialized by Daito Corporation, Toyama, Japan), taxifolin (commercialized by Funakoshi, Co., Ltd., Tokyo, Japan), sulfuretin (commercialized by Funakoshi, Co., Ltd.; Tokyo, Japan), or cyanidin (commercialized by Funakoshi, Co., Ltd., Tokyo, Japan) was selected as test samples. Alkaline phosphatase activity was measured by the method of Experiment 1. Calcium deposition was measured by usual method using “Calcium C Test Wako” (commercialized by Wako Pure Chemical Industries, Osaka, Japan), briefly, cultured cells were washed with 1 ml of Dulbecco phosphate buffer saline three times after removing the medium. To the resultant was added 0.5 ml of 2N hydrochloric acid to resolve deposited calcium. To 5 μl of the resultant solution were added 0.5 ml of 0.88M monoethanolamine buffer (pH11) and 0.05 ml of 0.63 mM o-cresolphthalein complexone solution (binding to calcium ion to form chelate complex) containing 69 mM 8-quinolinol and mixed. Calcium amount per one hole of the plate was calculated by measuring absorbance 570 nm of the resultants and standardizing with a standard calcium solution. The judgement of alkaline phosphatase activity or calcium deposition amount of each sample was to calculate the relative activity or the relative calcium deposition amount to the negative control (only medium containing 0.2% (v/v) ethanol) and to compare each other.
The enhancement of calcium deposition between kaempferol and ipripfavone were compared. Test samples and their adding manner were same as Experiment 4. Calcium deposition amount was measured by usual method using “Calcium C Test Wako” (commercialized by Wako Pure Chemical Industries, Osaka, Japan); briefly, cultured cells were washed with 1 ml of Dulbecco phosphate buffer saline three times after removing the medium. To the resultant was added 0.5 ml of 2N hydrochloric acid to resolve deposited calcium. To 5 μl of the resolving solution were added 0.5 ml of 0.88M monoethanolamine buffer (pH11) and 0.05 ml of 0.63 mM o-cresolphthalein complexone solution (binding to calcium ion to form chelate complex) containing 69 mM 8-quinolinol and mixed, Calcium amount per one hole of the plate was calculated by measuring absorbance 570 nm of the resultants and standardizing with a standard calcium solution.
Kaempferol or hesperetin in combination with ipriflavone, or a kind of isoflavones, was investigated whether to enhance calcium deposition or not. Methods for preparing samples and culturing the cells were the same method described in Experiment 1 except culturing the cells for five days, Method for measuring calcium was the same method described in Experiment 3 and 5. Final ethanol concentration of the medium containing each sample was adjusted as same concentration.

The test system is the same in assay [2]. Nature of the assay: Alkaline phosphatase activity in mouse pre-osteoblastic cells. Type of assay: cell-based. The method, then: To increase number of osteoblastic cells having calcium-deposition activity is important for increasing bone mass. […] The activity is at low level in pre-osteoblastic cells and at high level in osteoblastic cells differentiated form the pre-osteoblastic cells. […] Since final ethanol concentration in the medium is 0.2% (v/v), α-MEM medium containing 0.2% (v/v) ethanol was prepared as a negative control. The cells were inoculated for eight days as changing the medium therewith to fresh medium with or without each sample per three days. Alkaline phosphatase activity was measured using “Alkaline Phospha B-Test Wako” (commercialized by Wako Pure Chemical Industries, Osaka, Japan) according with Kajii et al (Archives of Oral Biology, Vol. 44, pp. 233-241, (1999)). Briefly, to the above described mouse pre-osteoblastic cells washed with 1 ml of 0.25 M sucrose solution three times after removing the medium were added 0.45 ml of 50 mM carbonate salt buffer (pH9.8) containing 1 mM magnesium chloride and 50 mM sucrose and 0.05 ml of 3.4 mM disodium p-nitrophenyl phosphate in due course. The mixture was incubated at 25° C. for five minutes and admixed with 1.5 ml of 0.6N sodium hydroxide as a reaction terminator. Absorbance 405 nm of p-nitrophenol generated by alkaline phosphatase in the resulting mixture was measured, and the obtained values were used as values as alkaline phosphatase activity. […] The experiment was performed by the method according to Experiment 1 except that culture day in the medium containing each sample was three, six or nine, and concentration of each sample was 5, 10 or 20 μM. […] As a negative control, mediums containing ethanol in the above concentration were prepared for calculating relative activity to the activity of each control.

For the molecule `COc1ccc([C@@H]2CC(=O)c3c(O)cc(O)cc3O2)cc1O` [Hesperetin], the “enhancing calcium deposition in combination with ipriflavone versus single use (FIGS. 3 and 4)” value in assay [1] (5, 10 or 20 μM each, five days culture) is reported as “a synergy effect was confirmed”. Also, in assay [1] (flavonoid comparison, Calcium C Test Wako, relative to 0.2% (v/v) ethanol negative control), the “Relative Calcium Deposition Amount (%)” value came to 289%. Moreover, in assay [2] (MC3T3-E1, 5, 10 or 20 μM, day three, six or nine), the “enhancement of alkaline phosphatase activity compared with ipriflavone (FIG. 1)” value is “equally enhances”. The “Relative Alkaline Phosphatase Activity (%)” value in assay [2] (flavonoid comparison, method of Experiment 1, relative to 0.2% (v/v) ethanol negative control) is reported as 116%.
